# Experimental data as given in patent US20070123592A1, “Terephthalamide peptidomimetic compounds and methods” (YALE UNIVERSITY, priority 2004, published 2007).
# Where “and” joins values, the source holds several entries; their conditions need not be identical. Identical values can stand only once.
# What was measured:
# Bcl-xL/Bak complex = molecular target: T1, Bcl-xL/Bak complex (Homo sapiens, UniProt Q07817); experiment: Fluorescence polarization competition assay (displacement of fluorescein-labeled Bak peptide from Bcl-xL); assay type: binding; details: for K1 ± S.D. / Ki: 15 nM Fl-Bak, 184 nM Bcl-xL, 10 mM PBS pH 7.4, 25° C., mean of three independent experiments; for affinity / activity in disrupting the Bcl-xL/Bak interaction (in words): summary of Table 1; for Ki: read-out: K1 ± S.D.
# T1 construct: made in house
# Experimental: Fluorescence polarization experiments were conducted on a Photon Technology International instrument using a 0.3 cm path length cuvette.
# 15N-labeled Bcl-xL = 15N-labeled Bcl-xL (Homo sapiens, UniProt Q07817); experiment: (15N,1H)-2D-HSQC amide chemical shift perturbation mapping; assay type: binding; details: 2 mM Bcl-xL, 0, 1, 2 mM compound, 10% DMSO/D2O, 25° C., PBS pH 7.0
# Experimental: (^15N, ^1H)-2D-HSQC spectra were recorded on a Varian DPX-600 spectrometer. The concentration of Bcl-xL was 2 mM, with 0, 1 mM, 2 mM 3-26, respectively, in 10% DMSO/D2O (25° C., 10.0 mM PBS, pH 7.0).
# To structurally probe the binding mode of the terephthalamide, (^15N, ^1H)-2D-amide chemical shift perturbation mapping with ^15N-labeled Bcl-xL were performed as above. Addition of compound 3-26 led to shifts in a number of residues on the surface of Bcl-xL. […] These affected residues all lie in the shallow cleft on the protein into which the Bak helix binds.
# T1 sequence (Q07817 whole entry, species assumed, one chain of several): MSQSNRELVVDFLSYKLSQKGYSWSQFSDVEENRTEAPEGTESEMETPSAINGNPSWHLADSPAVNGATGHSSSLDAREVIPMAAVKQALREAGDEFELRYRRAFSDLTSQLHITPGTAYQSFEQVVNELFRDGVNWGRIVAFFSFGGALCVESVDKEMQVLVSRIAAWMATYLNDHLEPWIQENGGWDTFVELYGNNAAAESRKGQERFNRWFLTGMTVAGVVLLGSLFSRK
# Sequence of 15N-labeled Bcl-xL (Q07817 whole entry): as the sequence (Q07817 whole entry, species assumed, one chain of several) above
SMILES,affinity / activity in disrupting the Bcl-xL/Bak interaction (in words) (Bcl-xL/Bak complex),Ki (Bcl-xL/Bak complex),also measured
"COC(=O)[C@H](CC(C)C)NC(=O)c1ccc(C(=O)N(CC(C)C)[C@@H](C)C(=O)OC)cc1OC(C)C [Compound 3-22, (S)-2-{4-[Isobutyl-((S)-1-methoxycarbonyl-ethyl)-carbamoyl]-2-isopropoxy-benzoylamino}-4-methyl-pentanoic acid methyl ester]",did not show activity,–,K1 ± S.D. (Bcl-xL/Bak complex): No affinity
"COC(=O)[C@@H](NC(=O)c1ccc(C(=O)N(CC(C)C)CC(C)C)cc1OC(C)C)C(C)C [Compound 3-41, (S)-2-(4-Diisobutylcarbamoyl-2-isopropoxy-benzoylamino)-3-methyl-butyric acid methyl ester]",–,138 ± 49.5 µM,–
"COC(=O)[C@H](CC(C)C)NC(=O)c1ccc(C(=O)N(CC(C)C)CC(C)C)cc1OC(C)C [Compound 3-40, (S)-2-(4-Diisobutylcarbamoyl-2-isopropoxy-benzoylamino)-4-methyl-pentanoic acid methyl ester]",–,8.36 ± 3.8 µM,–
"CC(C)Oc1cc(C(=O)N(C)C)ccc1C(=O)N[C@@H](Cc1ccccc1)C(=O)O [Compound 3-35, (S)-2-(4-Dimethylcarbamoyl-2-isopropoxy-benzoylamino)-3-phenyl-propionic acid]",–,8.92 ± 3.59 µM,–
"CC(C)C[C@H](NC(=O)c1ccc(C(=O)N(C(C)C)C(C)C)cc1NC(C)C)C(=O)O [Compound 3-17, (S)-2-(4-Diisopropylcarbamoyl-2-isopropylamino-benzoylamino)-4-methyl-pentanoic acid]",–,3.31 ± 0.345 µM,affinity less than 2-isopropoxy analogue 3-10 (Bcl-xL/Bak complex; relative to 3-10): 4 fold
CC(C)C[C@H](NC(=O)c1ccc(C(=O)N(C(C)C)C(C)C)cc1OC(C)C)C(=O)O [Compound 3-10],–,0.839 ± 0.171 µM,–
"CCN(CC)C(=O)c1ccc(C(=O)N[C@@H](CC(C)C)C(=O)OC)c(OC(C)C)c1 [Compound 3-38, (S)-2-(4-Diethylcarbamoyl-2-isopropoxy-benzoylamino)-4-methyl-pentanoic acid methyl ester]",–,11.4 ± 5.09 µM,–
"CC(C)Oc1cc(C(=O)N(c2ccccc2)c2ccccc2)ccc1C(=O)N[C@@H](C)C(=O)O [Compound 3-42, (S)-2-(4-Diphenylcarbamoyl-2-isopropoxy-benzoylamino)-propionic acid]",most of the affinity was lost,260 ± 58 µM,–
"CCN(CC)C(=O)c1ccc(C(=O)N[C@@H](C)C(=O)OC)c(OC(C)C)c1 [Compound 3-37, (S)-2-(4-Diethylcarbamoyl-2-isopropoxy-benzoylamino)-propionic acid methyl ester]",low micro-molar Ki values,2.44 ± 0.947 µM,–
"CC(C)C[C@H](NC(=O)c1ccc(C(=O)N(c2ccccc2)c2ccccc2)cc1OC(C)C)C(=O)O [Compound 3-43, (S)-2-(4-Diphenylcarbamoyl-2-isopropoxy-benzoylamino)-4-methyl-pentanoic acid]",most of the affinity was lost,780 ± 174 µM,–
"COC(=O)[C@H](C)NC(=O)c1ccc(C(=O)N(C)C)cc1OC(C)C [Compound 3-33, (S)-2-(4-Dimethylcarbamoyl-2-isopropoxy-benzoylamino)-propionic acid methyl ester]",–,8.34 ± 1.61 µM,–
"COC(=O)[C@H](C)NC(=O)c1ccc(C(=O)N(CC(C)C)CC(C)C)cc1OC(C)C [Compound 3-39, (S)-2-(4-Diisobutylcarbamoyl-2isopropoxy-benzoylamino)-propionic acid methyl ester]",–,8.76 ± 2.78 µM,–
"COC(=O)[C@H](CC(C)C)NC(=O)c1ccc(C(=O)N(C(C)C)C(C)C)cc1OC [Compound 3-26, (S)-2-(4-Diisopropylcarbamoyl-2-methoxy-benzoylamino)-4-methyl-pentanoic acid methyl ester]",–,1.85 ± 0.318 µM,amide chemical shift changes of Bcl-xL residues on addition of inhibitor (15N-labeled Bcl-xL): significant chemical shift changes
"COC(=O)[C@H](CC(C)C)NC(=O)c1ccc(C(=O)N(c2ccccc2)c2ccccc2)cc1OC(C)C [Compound 3-44, (S)-2-(4-Diphenylcarbamoyl-2-isopropoxy-benzoylamino)-4-methyl-pentanoic acid methyl ester]",most of the affinity was lost,–,K1 ± S.D. (Bcl-xL/Bak complex): No affinity
"CC(C)Oc1cc(C(=O)N(c2ccccc2)c2ccccc2)ccc1C(=O)N[C@@H](Cc1ccccc1)C(=O)O [Compound 3-45, (S)-2-(4-Diphenylcarbamoyl-2-isopropoxy-benzoylamino)-3-phenyl-propionic acid]",most of the affinity was lost,–,K1 ± S.D. (Bcl-xL/Bak complex): No affinity
CC(C)CC(NC(=O)c1ccc(C(=O)NCC(=O)O)cc1O)C(=O)O (centres unmarked) [Compound 3-46],–,–,K1 ± S.D. (Bcl-xL/Bak complex): No affinity
"COC(=O)[C@H](CC(C)C)NC(=O)c1ccc(C(=O)N(C(C)C)C(C)C)cc1OC(C)C [Compound 3-9, (S)-2-(4-Diisopropylcarbamoyl-2-isopropoxy-benzoylamino)-4-methyl-pentanoic acid methyl ester]",low micro-molar Ki values,0.78 µM and 0.781 µM,–
